Measured values reported in US7592160B2, “Processes for producing isomaltose and isomaltitol and use thereof” (Kabushiki Kaisha Hayashibara Seibutsu Kagaku Kenkyujo, priority 2001, dated 2009).

Tests used:
Set-up in all cases: key: −: no saccharide-transferred product was detected through transfer reaction to acceptor; ±: a saccharide-transferred product was detected in an amount less than one percent through transfer reaction to acceptor; +: a saccharide-transferred product was detected in an amount over one percent but less than 10% through transfer reaction to acceptor; ++: a saccharide-transferred product was detected in an amount over ten percent through transfer reaction to acceptor
[1] = tested on: α-isomaltosylglucosaccharide-forming enzyme; experiment: Transfer-acceptor specificity, enzyme of N75 strain; assay type: biochemical, Bacillus globisporus N75 strain; details: acceptor 1.6%, PINE-DEX #100 donor 4%, one unit/g donor, 30° C., pH 6.0, 24 hours
Procedure: (§1) Using various saccharides, it was tested whether the saccharides were used as transferring-acceptors for α-isomaltosylglucosaccharide-forming enzyme. A solution of D-glucose, D-xylose, L-xylose, D-galactose, D-fructose, D-mannose, D-arabinose, D-fucose, D-psicose, L-sorbose, L-rhamnose, methyl-α-glucopyranoside, methyl-β-glucopyranoside, N-acetyl-glucosamine, sorbitol, α,α-trehalose, isomaltose, isomaltotriose, cellobiose, gentibiose, glycerol, maltitol, lactose, sucrose, α-cyclodextrin, β-cyclodextrin, γ-cyclodextrin, or L-ascorbic acid was prepared. To each solution with a saccharide concentration of 1.6% was added “PINE-DEX #100”, a partial starch hydrolyzate, as a saccharide donor, to give a concentration of 4%, and admixed with one unit/g saccharide donor, d.s.b., of either of purified specimens of α-isomaltosylglucosaccharide-forming enzyme from Bacillus globisporus C9 strain obtained by the method in Experiment 4-2, Bacillus globisporus C11 strain obtained by the method in Experiment 7-2, Bacillus globisporus N75 strain obtained by the method in Experiment 11-2, or Arthrobacter globiformis A19 strain obtained by the method in Experiment 15-2, and incubated at 30° C. and pH 6.0 for 24 hours, except that pH 8.4 was used for the enzyme from Arthrobacter globiformis A19 strain. The reaction mixtures of the post-enzymatic reactions were analyzed on gas chromatography (abbreviated as “GLC” hereinafter) for monosaccharides and disaccharides as acceptors, and on HPLC for trisaccharides as acceptors to confirm whether these saccharides could be used as the transfer acceptors of the above enzymes. In the case of performing GLC, the following apparatuses and conditions were used: GLC apparatus, “GC-16A” commercialized by Shimadzu Corporation, Tokyo, Japan; column, a stainless-steel column, 3 mm in diameter and 2 m in length, packed with 2% “SILICONE OV-17/CHROMOSOLV W”, commercialized by GL Sciences Inc., Tokyo, Japan; carrier gas, nitrogen gas at a flow rate of 40 ml/min under temperature conditions of increasing from 160° C. to 320° C. at an increasing temperature rate of 7.5° C./min; and detection, a hydrogen flame ionization detector. In the case of performing HPLC analysis, the following apparatuses and conditions were used: HPLC apparatus, “CCPD” commercialized by Tosoh Corporation, Tokyo, Japan; column, “ODS-AQ-303” commercialized by YMC Co., Ltd., Tokyo, Japan; eluent, water at a flow rate of 0.5 ml/min; and detection, a differential refractometer.

[2] = tested on: α-isomaltosylglucosaccharide-forming enzyme; experiment: Transfer-acceptor specificity, enzyme of C11 strain; assay type: biochemical, Bacillus globisporus C11 strain; details: acceptor 1.6%, PINE-DEX #100 donor 4%, one unit/g donor, 30° C., pH 6.0, 24 hours
Procedure: as §1

[3] = tested on: α-isomaltosylglucosaccharide-forming enzyme; experiment: Transfer-acceptor specificity, enzyme of A19 strain; assay type: biochemical, Arthrobacter globiformis A19 strain; details: acceptor 1.6%, PINE-DEX #100 donor 4%, one unit/g donor, 30° C., pH 8.4, 24 hours
Procedure: as §1

[4] = tested on: α-isomaltosylglucosaccharide-forming enzyme; experiment: Transfer-acceptor specificity, enzyme of C9 strain; assay type: biochemical, Bacillus globisporus C9 strain; details: acceptor 1.6%, PINE-DEX #100 donor 4%, one unit/g donor, 30° C., pH 6.0, 24 hours
Procedure: as §1

Compound | Product of transferring reaction, Enzyme of N75 strain [1] | Product of transferring reaction, Enzyme of C11 strain [2] | Product of transferring reaction, Enzyme of A19 strain [3] | Product of transferring reaction, Enzyme of C9 strain [4]
CC(=O)N[C@H]1C(O)O[C@H](CO)[C@@H](O)[C@@H]1O (stereo partly drawn) [N-Acetylglucosamine, N-acetyl-glucosamine] | + (a saccharide-transferred product was detected in an amount over one percent but less than 10% through transfer reaction to acceptor) | + (a saccharide-transferred product was detected in an amount over one percent but less than 10% through transfer reaction to acceptor) | − | + (a saccharide-transferred product was detected in an amount over one percent but less than 10% through transfer reaction to acceptor)
O=C[C@H](O)[C@@H](O)[C@@H](O)[C@H](O)CO [D-Galactose, D-galactose] | + (a saccharide-transferred product was detected in an amount over one percent but less than 10% through transfer reaction to acceptor) | + (a saccharide-transferred product was detected in an amount over one percent but less than 10% through transfer reaction to acceptor) | ± (a saccharide-transferred product was detected in an amount less than one percent through transfer reaction to acceptor) | + (a saccharide-transferred product was detected in an amount over one percent but less than 10% through transfer reaction to acceptor)
O=C(CO)[C@@H](O)[C@H](O)[C@H](O)CO [D-Fructose, D-fructose] | + (a saccharide-transferred product was detected in an amount over one percent but less than 10% through transfer reaction to acceptor) | + (a saccharide-transferred product was detected in an amount over one percent but less than 10% through transfer reaction to acceptor) | + (a saccharide-transferred product was detected in an amount over one percent but less than 10% through transfer reaction to acceptor) | + (a saccharide-transferred product was detected in an amount over one percent but less than 10% through transfer reaction to acceptor)
O=C[C@@H](O)[C@H](O)[C@@H](O)CO [L-Xylose, L-xylose] | ++ (a saccharide-transferred product was detected in an amount over ten percent through transfer reaction to acceptor) | ++ (a saccharide-transferred product was detected in an amount over ten percent through transfer reaction to acceptor) | + (a saccharide-transferred product was detected in an amount over one percent but less than 10% through transfer reaction to acceptor) | ++ (a saccharide-transferred product was detected in an amount over ten percent through transfer reaction to acceptor)
O=C[C@@H](O)[C@@H](O)[C@H](O)[C@H](O)CO [D-Mannose, D-mannose] | − | − | ± (a saccharide-transferred product was detected in an amount less than one percent through transfer reaction to acceptor) | −
C[C@H](O)[C@H](O)[C@@H](O)[C@@H](O)C=O [L-Rhamnose, L-rhamnose] | − | − | − | −
O=C(CO)[C@@H](O)[C@H](O)[C@@H](O)CO [L-Sorbose, L-sorbose] | + (a saccharide-transferred product was detected in an amount over one percent but less than 10% through transfer reaction to acceptor) | + (a saccharide-transferred product was detected in an amount over one percent but less than 10% through transfer reaction to acceptor) | + (a saccharide-transferred product was detected in an amount over one percent but less than 10% through transfer reaction to acceptor) | + (a saccharide-transferred product was detected in an amount over one percent but less than 10% through transfer reaction to acceptor)
CO[C@H]1O[C@H](CO)[C@@H](O)[C@H](O)[C@H]1O [Methyl-α-glucopyranoside, methyl-α-glucopyranoside] | ++ (a saccharide-transferred product was detected in an amount over ten percent through transfer reaction to acceptor) | ++ (a saccharide-transferred product was detected in an amount over ten percent through transfer reaction to acceptor) | ++ (a saccharide-transferred product was detected in an amount over ten percent through transfer reaction to acceptor) | ++ (a saccharide-transferred product was detected in an amount over ten percent through transfer reaction to acceptor)
OC[C@H]1O[C@@H]2O[C@H]3[C@H](O)[C@@H](O)[C@@H](O[C@H]4[C@H](O)[C@@H](O)[C@@H](O[C@H]5[C@H](O)[C@@H](O)[C@@H](O[C@H]6[C@H](O)[C@@H](O)[C@@H](O[C@H]7[C@H](O)[C@@H](O)[C@@H](O[C@H]1[C@H](O)[C@H]2O)O[C@@H]7CO)O[C@@H]6CO)O[C@@H]5CO)O[C@@H]4CO)O[C@@H]3CO [α-Cyclodextrin, α-cyclodextrin] | − | − | − | −
O=C[C@H](O)[C@@H](O)[C@H](O)[C@H](O)CO [D-Glucose, D-glucose] | + (a saccharide-transferred product was detected in an amount over one percent but less than 10% through transfer reaction to acceptor) | + (a saccharide-transferred product was detected in an amount over one percent but less than 10% through transfer reaction to acceptor) | + (a saccharide-transferred product was detected in an amount over one percent but less than 10% through transfer reaction to acceptor) | + (a saccharide-transferred product was detected in an amount over one percent but less than 10% through transfer reaction to acceptor)
O=C(CO)[C@H](O)[C@H](O)[C@H](O)CO [D-Psicose, D-psicose] | + (a saccharide-transferred product was detected in an amount over one percent but less than 10% through transfer reaction to acceptor) | + (a saccharide-transferred product was detected in an amount over one percent but less than 10% through transfer reaction to acceptor) | + (a saccharide-transferred product was detected in an amount over one percent but less than 10% through transfer reaction to acceptor) | + (a saccharide-transferred product was detected in an amount over one percent but less than 10% through transfer reaction to acceptor)
OC[C@@H](O)[C@@H](O)[C@H](O)[C@@H](O)CO [Sorbitol, sorbitol] | − | − | − | −
